38 compounds from patent US20250051330A1, “HETEROCYCLIC COMPOUND HAVING ANTI-TUMOR ACTIVITY AND USE THEREOF” (CSPC Zhongqi Pharmaceutical Technology (Shijiazhuang) Co., …, priority 2021, published 2025) can be followed below.

Like-named read-outs stand apart in the source and are kept apart here.

Assay [1] addresses T1, K-Ras^G12D and hSOS1 (Homo sapiens, UniProt Q07889).
T1 construct: variant: G12D
The assay is described as follows: K-Ras G12D and hSOS1 binding assay (HTRF). Conditions: inhibition of binding of K-Ras G12D to hSOS1, HTRF; read-out: Activity by IC50 (nM), SOS1 inhibitory activity. On the procedure: 1. K-Ras^G12D and hSOS1 Binding Assay
This assay could be used to examine the potency of the compounds to inhibit the protein-protein interaction between SOS1 and KRAS G12D. The binding of anti-GSK-Europium (FRET donor)-conjugated GST-KRas^G12D to anti-6His-XL665-conjugated His-tagged hSOS1 ([…]) was detected by homogeneous time-resolved fluorescence (HTRF), and the inhibitory effects of the compounds on the binding of K-Ras^G12D to hSOS1 were determined.
• Buffer (5 mM HEPES pH 7.4, 150 mM NaCl, 10 mM EDTA, 1 mM DTT, 0.05% BAS pH 7.0, 0.0025% 1gepal, and 100 mM KF); • GST-tagged hK-RasG12D (produced in-house); • His-tagged hSOS1 (produced in-house);
• 10 nM (final concentration) GST-hK-RasG12D and 2 nM (final concentration) anti-GSK-Europium in assay buffer were mixed, and set aside at room temperature.
• 20 nM (final concentration) His-tagged hSOS1 and 10 nM (final concentration) anti-6His-XL665 in assay buffer were mixed, and set aside at room temperature.
The test compound was dissolved in DMSO at a concentration of 100 times the assay concentration. 50 nL of the solution of compound was pipetted by Hummingbird liquid handler or Echo acoustic system to a black microassay plate.
All the experimental steps were conducted at 20° C. In the experiment, 2.5 μL of the liquid mixture of Ras was added to all wells of the assay plate using a Multidrop dispenser. After pre-incubation for 2 min, 2.5 μL of the liquid mixture of SOS was added to all the test wells other than the marginal wells, and 2.5 μL of the […], as a control, was added to the marginal wells. After incubation for 60 min, the assay plate passed through the HTRF module of Pheraster (excitation light: 337 nm, emission light 1: 620 nm, emission light 2: 665 nm).
The IC50 values were calculated and analyzed using a four-parameter logistic regression model.

The subject of assay [2] is NCI-H358 cells. The assay is described as follows: 3D cell proliferation inhibition assay (CellTiter-Glo 3D). It counts as cell-based. As to conditions: Homo sapiens, read-out: Activity by IC50 (nM), inhibitory activity against NCI-H358 cell proliferation. The source says:
The cell proliferation inhibition assay was used to determine the abilities of compounds to inhibit the proliferation and growth of SOS1-mediated tumor cells at the in vitro 3D cellular level. The CellTiter-Glo® 3D Cell Viability Assay was employed.
• NCI-H358: KRAS G12C-mutated non-small cell lung cancer (NSCLC); • CellTiter-Glo® 3D Cell Viability Assay, Promega, G9683; • RPMI 1640 medium, Gibco, A10491-01; • FBS, Gibco, 10099141C.
• Day 1: NCI-H358 cells were passaged into a T75 cell culture flask. • Day 3: the medium was removed; the cells were rinsed once with DPBS, and digested at room temperature or at 37° C. using 2 mL of TrypLE™ Express Enzyme until the cells were detached; the resultant was added with 5 mL of fresh medium, and centrifuged at 1000 rpm for 5 min; the supernatant was discarded, and 5 mL of fresh medium was added to resuspend the cells; the cells were counted and then seeded at 40 μL/well in a 3D cell culture plate (Echo Qualified 384-Well Polypropylene Microplate 2.0, Clear, Flat Bottom).
• Day 1: the test compound was dissolved in DMSO to prepare a 10 mM stock solution; after a 1000-fold dilution with DMSO, the test compound solution was subjected to ten 3-fold serial dilutions starting from a concentration of 10 μM; 200 nL of the compound solution was added to the culture plate. • Day 8: CTG 3D reagent was added at 40 μL/well, and the signal was detected using Envision.
The IC50 values of the compounds were fitted using the Graphpad Prism 8 nonlinear regression equation.
[formula] • X: Log of cpd concentration; • Y: Percent inhibition (% inh).

Where [3] appears, read: 192 h, NCI-H358 (KRAS G12C-mutated NSCLC), 3D culture, CTG 3D read on Day 8.

T1 sequence (Q07889 whole entry, looked up, stated change not applied): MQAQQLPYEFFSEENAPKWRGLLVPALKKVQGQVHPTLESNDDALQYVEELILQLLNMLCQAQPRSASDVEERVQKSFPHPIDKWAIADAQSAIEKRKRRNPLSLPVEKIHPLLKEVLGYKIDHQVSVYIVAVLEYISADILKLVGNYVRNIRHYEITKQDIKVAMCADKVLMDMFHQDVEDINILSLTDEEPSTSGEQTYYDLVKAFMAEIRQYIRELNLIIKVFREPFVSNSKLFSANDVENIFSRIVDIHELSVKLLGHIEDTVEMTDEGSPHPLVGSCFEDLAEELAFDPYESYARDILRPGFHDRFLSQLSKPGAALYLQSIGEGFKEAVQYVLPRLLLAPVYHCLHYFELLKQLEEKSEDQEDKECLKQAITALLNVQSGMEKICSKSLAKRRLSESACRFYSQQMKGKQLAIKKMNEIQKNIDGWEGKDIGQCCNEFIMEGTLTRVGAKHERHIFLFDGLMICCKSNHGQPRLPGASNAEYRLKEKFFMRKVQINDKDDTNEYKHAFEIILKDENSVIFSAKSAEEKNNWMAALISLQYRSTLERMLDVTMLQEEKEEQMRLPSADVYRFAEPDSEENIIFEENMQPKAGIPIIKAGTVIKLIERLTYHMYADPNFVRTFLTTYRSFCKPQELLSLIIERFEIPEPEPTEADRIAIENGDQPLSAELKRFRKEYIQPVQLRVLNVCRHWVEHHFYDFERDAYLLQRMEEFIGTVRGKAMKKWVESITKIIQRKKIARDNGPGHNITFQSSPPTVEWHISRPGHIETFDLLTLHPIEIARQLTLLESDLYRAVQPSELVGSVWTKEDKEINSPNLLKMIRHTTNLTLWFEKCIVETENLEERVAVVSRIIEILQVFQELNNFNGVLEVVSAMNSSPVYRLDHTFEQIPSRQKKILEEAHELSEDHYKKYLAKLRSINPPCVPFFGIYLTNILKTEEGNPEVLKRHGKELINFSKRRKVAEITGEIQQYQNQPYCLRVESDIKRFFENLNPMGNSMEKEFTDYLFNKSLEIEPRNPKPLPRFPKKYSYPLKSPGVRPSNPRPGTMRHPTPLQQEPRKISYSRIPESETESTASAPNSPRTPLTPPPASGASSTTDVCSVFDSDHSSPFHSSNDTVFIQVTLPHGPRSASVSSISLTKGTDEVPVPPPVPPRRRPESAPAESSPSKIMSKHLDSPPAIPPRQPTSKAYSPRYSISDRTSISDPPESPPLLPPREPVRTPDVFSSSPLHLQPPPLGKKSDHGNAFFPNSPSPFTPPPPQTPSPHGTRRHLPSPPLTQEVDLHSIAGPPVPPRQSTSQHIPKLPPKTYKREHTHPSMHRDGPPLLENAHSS

As to `Cc1nc(N[C@H](C)c2cccc(C(F)F)c2F)c2c(n1)N1CCN=C1C(c1ccc(=O)[nH]c1)=C2` [Example 12], the IC50 in assay [1] is < 10 nM; in assay [2] (setting [3]), 100 to 500 nM.
On to `Cc1nc(N[C@H](C)c2cccc(C(F)(F)F)c2F)c2cc(-c3ccn(C)c(=O)c3)n3cnnc3c2n1` [Example 10], for which the IC50 in assay [1] lay within 10 to 50 nM.
Regarding `Cc1nc(N[C@H](C)c2cccc(C(F)F)c2F)c2cc(-c3ccn(C)c(=O)c3)n3cnnc3c2n1` [Example 9], the IC50 in assay [1] is 10 to 50 nM.
`Cc1nc(N[C@H](C)c2cccc(C(F)(F)F)c2)c2c(n1)N1CCN=C1C(c1cccn(C)c1=O)=C2` [Example 99]: the IC50 fell in the range of 10 to 50 nM in assay [1] and 100 to 500 nM in assay [2] (setting [3]).
On the same counts, the results for `Cc1nc(N[C@H](C)c2cccc(C(F)(F)F)c2)c2c(n1)N1CCN=C1C(c1ccc(=O)n(CCO)c1)=C2` [Example 97] are < 10 nM and 100 to 500 nM.
With `Cc1nc(N[C@H](C)c2cccc3c2OCC3(F)F)c2c(n1)N1CCN=C1C(c1ccc(=O)n(C)c1)=C2` [Example 120], the IC50 in assay [2] (setting [3]) lay within 100 to 500 nM.
For `Cc1nc(N[C@H](C)c2cccc(C(F)F)c2F)c2c(n1)N1CCN=C1C(C1=CCN(C(=O)CC#N)CC1)=C2` [Example 123], the values for the IC50 in assay [1] and in assay [2] (setting [3]) were < 10 nM and 50 to 100 nM, respectively.
On to `COCCn1cc(C2=Cc3c(N[C@H](C)c4cccc(C(F)(F)F)c4)nc(C)nc3N3CCN=C23)ccc1=O` [Example 100], for which the IC50 in assay [2] (setting [3]) was 100 to 500 nM.
In the case of `CCn1cc(C2=Cc3c(N[C@H](C)c4cccc(C(F)(F)F)c4)nc(C)nc3N3CCN=C23)ccc1=O` [Example 98], the IC50 in assay [1] was < 10 nM; in assay [2] (setting [3]), 100 to 500 nM.
For the compound `Cc1nc(N[C@H](C)c2cccc(C(F)(F)F)c2)c2c(n1)N1CCN=C1C(c1cc(C)c(=O)n(C)c1)=C2` [Example 106], in assay [2] (setting [3]), the IC50 fell in the range of 100 to 500 nM.
As for `Cc1nc(N[C@H](C)c2cccc(C(F)F)c2F)c2c(n1)N1CCN=C1C(c1ccn(C)c(=O)c1)=C2` [Example 7], the IC50 in assay [2] (NCI-H358, 192 h) was < 50 nM.
On to `Cc1nc(N[C@H](C)c2cccc(C(F)(F)F)c2)c2c(n1)N1CCN=C1C(c1ccn(CF)c(=O)c1)=C2` [Example 113], for which the IC50 in assay [2] (setting [3]) was 100 to 500 nM.
On to `Cc1nc(N[C@H](C)c2cccc(C(F)F)c2F)c2c(n1)N1CCN=C1C(C1(O)CCN(C(=O)C3(F)CC3)CC1)=C2` [Example 125], for which the IC50 in assay [2] (setting [3]) lay within 50 to 100 nM.
`Cc1nc(N[C@H](C)c2cccc3c2OCC3(F)F)c2c(n1)N1CCN=C1C(c1ccn(C)c(=O)c1)=C2` [Example 121]: the IC50 in assay [2] (setting [3]) lay in the range of 100 to 500 nM.
As for `Cc1nc(N[C@H](C)c2cccc(C(F)F)c2F)c2c(n1)N1CCN=C1C(C1=CCN(S(C)(=O)=O)CC1)=C2` [Example 122], the values for the IC50 in assay [1] and in assay [2] (setting [3]) were < 10 nM and 50 to 100 nM, respectively.
Turning to `C[C@@H](Nc1nc(C2CC2)nc2c1C=C(c1ccn(C)c(=O)c1)C1=NCCN12)c1cccc(C(F)(F)F)c1` [Example 110], the IC50 in assay [2] (setting [3]) was 100 to 500 nM.
As to `Cc1nc(N[C@H](C)c2cccc(C(F)(F)F)c2)c2c(n1)N1CCN=C1C(c1ccc(=O)n(C(C)C)c1)=C2` [Example 105], the IC50 in assay [2] (setting [3]) lay within 100 to 500 nM.
Consider `Cc1nc(N[C@H](C)c2cccc(C(F)(F)F)c2)c2cc(N3CCN(C)CC3)c3nncn3c2n1` [Example 3], for which the values for the IC50 in assay [1] and in assay [2] (setting [3]) were 10 to 50 nM and 100 to 500 nM, respectively.
As for `Cc1nc(N[C@H](C)c2cccc(C(F)(F)F)c2)c2c(n1)N1CCN=C1C(c1cccc(=O)n1C)=C2` [Example 102], the IC50 in assay [2] (setting [3]) is 100 to 500 nM.
The same measure, in the same setting: then `Cc1nc(N[C@H](C)c2cccc(C(F)(F)C(C)(C)O)c2F)c2c(n1)N1CCN=C1C(c1ccc(=O)n(C)c1)=C2` [Example 119], with 50 to 100 nM.
With `CC(=O)N1CC=C(C2=Cc3c(N[C@H](C)c4cccc(C(F)F)c4F)nc(C)nc3N3CCN=C23)CC1` [Example 31], the IC50 in assay [1] is 10 to 50 nM; in assay [2] (setting [3]), < 50 nM.
For the compound `Cc1nc(N[C@H](C)c2cccc(C(F)(F)F)c2)c2c(n1)N1CCN=C1C(c1cn(C)c(=O)n(C)c1=O)=C2` [Example 104], the IC50 in assay [2] (setting [3]) is 100 to 500 nM.
With `[2H]C([2H])([2H])n1ccc(C2=Cc3c(N[C@H](C)c4cccc(C(F)(F)F)c4)nc(C)nc3N3CCN=C23)cc1=O` [Example 109], the results for the IC50 in assay [1] and in assay [2] (setting [3]) were 10 to 50 nM and 50 to 100 nM, respectively.
In the case of `Cc1nc(N[C@H](C)c2cccc(C(F)(F)F)c2)c2cc(N3CCOCC3)c3nncn3c2n1` [Example 4], the IC50 in assay [1] was in the range of 10 to 50 nM; in assay [2] (setting [3]) it was 100 to 500 nM.
In the same order, the values of `Cc1nc(N[C@H](C)c2cccc(C(F)(F)CO)c2)c2c(n1)N1CCN=C1C(c1ccn(C)c(=O)c1)=C2` [Example 118] are < 10 nM and 100 to 500 nM.
In the same order, the values of `Cc1nc(N[C@H](C)c2cccc(C(F)F)c2F)c2c(n1)N1CCN=C1C(C1=CCN(C(=O)C3(F)CC3)CC1)=C2` [Example 124] are < 10 nM and 50 to 100 nM.
As to `CC(=O)N1CC=C(c2cc3c(N[C@H](C)c4cccc(C(F)(F)F)c4)nc(C)nc3n3cnnc23)CC1` [Example 2], the IC50 in assay [1] lay within 10 to 50 nM; in assay [2] (setting [3]), 100 to 500 nM.
On to `Cc1nc(N[C@H](C)c2cccc(C(F)(F)F)c2)c2c(n1)N1CCN=C1C(c1cccnc1)=C2` [Example 94], for which the IC50 in assay [2] (setting [3]) was in the range of 100 to 500 nM.
The same measure, in the same setting: then `Cc1nc(N[C@H](C)c2cccc(C(F)(F)F)c2)c2c(n1)N1CCN=C1C(c1ccn(CCO)c(=O)c1)=C2` [Example 107], with 100 to 500 nM.
Regarding `Cc1nc(N[C@H](C)c2cccc(C(F)(F)CO)c2)c2c(n1)N1CCN=C1C(c1ccc(=O)n(C)c1)=C2` [Example 71], the IC50 in assay [1] is < 10 nM; in assay [2] (setting [3]), 100 to 500 nM.
For the compound `Cc1nc(N[C@H](C)c2cccc(C(F)(F)F)c2)c2c(n1)N1CCN=C1C(c1ccc(=O)n(C)c1)=C2` [Example 65], the IC50 lay in the range of 10 to 50 nM in assay [1] and 100 to 500 nM in assay [2] (setting [3]).
In the case of `C[C@@H](Nc1nc(C2CC2)nc2c1C=C(c1ccc(=O)n(C)c1)C1=NCCN12)c1cccc(C(F)(F)F)c1` [Example 111], the IC50 in assay [2] (setting [3]) fell in the range of 100 to 500 nM.
On to `Cc1nc(N[C@H](C)c2cc(N)cc(C(F)(F)F)c2)c2c(n1)N1CCN=C1C(c1ccn(C)c(=O)c1)=C2` [Example 6], for which the IC50 in assay [2] (NCI-H358, 192 h) was < 50 nM.
Regarding `Cc1nc(N[C@H](C)c2cccc(C(F)(F)F)c2)c2c(n1)N1CCN=C1C(c1ccc(=O)n(CC(F)F)c1)=C2` [Example 101], the IC50 in assay [2] (setting [3]) lay in the range of 100 to 500 nM.
Still for that read-out and setting: in the case of `Cc1nc(N[C@H](C)c2cc(C(F)(F)F)ccn2)c2c(n1)N1CCN=C1C(c1ccn(C)c(=O)c1)=C2` [Example 117] it was 100 to 500 nM; in that of `Cc1nc(N[C@H](C)c2cccc(C(F)(F)F)c2)c2c(n1)N1CCN=C1C(c1cnc(=O)n(C)c1)=C2` [Example 103], 100 to 500 nM.
Still for that read-out and setting: then `Cc1nc(N[C@H](C)c2cccc(C(F)(F)F)c2)c2c(n1)N1CCN=C1C(c1ccn(C3COC3)c(=O)c1)=C2` [Example 108], with 50 to 100 nM; and `Cc1nc(N[C@H](C)c2cccc(C(F)(F)F)c2)c2c(n1)N1CCN=C1C(c1cncc(C#N)c1)=C2` [Example 95], with 100 to 500 nM.
